Source: article PMC11494503, “Next Generation SICLOPPS Screening for the Identification of Inhibitors of the HIF-1α/HIF-1β Protein–Protein Interaction” (ACS Chemical Biology, 2024)

Tested on: HIF-1
Assay: HIF-1-dependent luciferase reporter assay in U2OS-HRE-Luc cells in hypoxia
Type: cell-based, human
Details: 16 h in hypoxia; for reduction in luminescence: 40 μM
Procedure: HIF Luciferase Reporter Assays
Assays were conducted in previously reported U2OS-HRE-Luciferase (U2OS-HRE-Luc) cells.2 Upon reaching 80-90% confluency, U2OS-HRE-Luc were plated (10 000 cells/well) in 96-well plates (Perkin-Elmer) and incubated in a cell incubator for 16 h. The cells were treated with cyclic peptide at […]
manufacturer’s protocol. […] The

## CC(C)C[C@@H]1NC(=O)[C@H](CS)NC(=O)[C@H](Cc2ccccc2)NC(=O)[C@H](CC(C)C)NC(=O)[C@H](CC(C)C)NC(=O)[C@H](CSSC[C@H](N)C(=O)NCC(=O)N[C@@H](CCCNC(=N)N)C(=O)N[C@@H](CCCCN)C(=O)N[C@@H](CCCCN)C(=O)N[C@@H](CCCNC(=N)N)C(=O)N[C@@H](CCCNC(=N)N)C(=O)N[C@@H](CCC(N)=O)C(=O)N[C@@H](CCCNC(=N)N)C(=O)N[C@@H](CCCNC(=N)N)C(=O)N[C@@H](CCCNC(=N)N)C(=O)N2CCC[C@H]2C(=O)N2CCC[C@H]2C(=O)N[C@@H](CCC(N)=O)C(=O)O)NC1=O [Tat-cyclo-CLLFCL]
20 μM
  luciferase signal reduction: 70%
  reduction in luminescence: 84%
Multiple doses, read-out: IC50 of reduction in the hypoxia-mediated luciferase signal
  IC50: 13 ± 4 µM

## Tat-cyclo-CLLFVY [reference compound]
  reduction in luminescence: 28%
